Data on 21 compounds can be found in ChEMBL document CHEMBL4706610, “Hydroxypyridinone-Based Iron Chelators with Broad-Ranging Biological Activities” (J Med Chem, 2020).

≈ marks a conversion by molar mass, not a printed value.

Series [1] can be described thus: Octanol-buffer partition coefficient, logP of the compound at pH 7.4 by shake flask method. The series is classed as physicochemical.
Series [2] concerns the target T1, Acetylcholinesterase (Electrophorus electricus, UniProt O42275). Briefly: Inhibition of electric eel AChE using acetylthiocholine iodide as substrate preincubated for 5 mins followed by substrate addition and measured after 2 mins by Ellman's method.
For series [3], the system named is Plasmodium falciparum. The experiment in a line: Antiplasmodial activity against chloroquine-resistant Plasmodium falciparum Dd2 incubated for 48 hrs by parasite lactate dehydrogenase assay. In kind it is functional, organism-based. As to conditions: Dd2, 48 h.
Series [4] deals with Plasmodium falciparum. The experiment in a line: Antiplasmodial activity against chloroquine-sensitive Plasmodium falciparum 3D7 incubated for 48 hrs by parasite lactate dehydrogenase assay. The series is classed as functional, organism-based. As to conditions: 3D7, 48 h.
Series [5] relates to Plasmodium falciparum. Briefly: Antiplasmodial activity against chloroquine-resistant Plasmodium falciparum K1 incubated for 48 hrs by parasite lactate dehydrogenase assay. In kind it is functional, organism-based. The settings on record: K1, 48 h.
For series [6], the system named is Plasmodium falciparum. The experiment in a line: Antiplasmodial activity against chloroquine-sensitive Plasmodium falciparum D10 incubated for 48 hrs by parasite lactate dehydrogenase assay. The series is classed as functional, organism-based. As to conditions: D10, 48 h.
Series [7] has as its system Staphylococcus aureus. The experiment in a line: Protection against Staphylococcus aureus Smith infected in sc dosed mouse administered 1 hr post infection and measured at 7 days post infection by Litchfield-Wilcoxon method. The settings on record: 168 h, time 7 day. The series is classed as functional.
The target of series [8] is T1, Acetylcholinesterase. Briefly: Inhibition of electric eel AChE using acetylthiocholine iodide as substrate preincubated for 15 mins followed by substrate addition and measured for 5 mins by Ellman's method.
Series [9] addresses T2, Amyloid-beta precursor protein (Homo sapiens, UniProt P05067). Briefly: Inhibition of self-induced amyloid beta (1 to 42) (unknown origin) aggregation measured after 24 hrs by ThT fluorescence assay relative to control. As to conditions: concentration not given here.
Series [10] is described as follows: Antioxidant activity assessed as DPPH radical scavenging activity incubated for 30 mins by UV-Vis spectrophotometric method. In kind it is functional.
The nature of series [11]: Binding affinity to iron assessed as pFe3+.
Series [12] concerns the target T2, Amyloid-beta precursor protein. Briefly: Inhibition of human amyloid beta (1 to 42) aggregation incubated for 24 hrs by ThT fluorescence assay. As to conditions: concentration not given here.
Series [13] in a line: Binding affinity to Fe3+ assessed as pFe at by potentiometric/UV-Vis spectrophotometric method.
Series [14] in a line: Binding affinity to Cu2+ assessed as pCu at pH 7.4 by potentiometric/UV-Vis spectrophotometric method.
Series [15] is described as follows: Antioxidant activity assessed as DPPH radical scavenging activity incubated for 30 mins by absorbance method. In kind it is functional.
For series [16], the target named is Acetylcholinesterase (Torpedo californica, UniProt P04058). Briefly: Inhibition of Torpedo californica AChE using acetylthiocholine iodide as substrate preincubated for 15 mins followed by substrate addition and measured for 5 mins. Details: species or system Tetronarce californica.
Chain of Acetylcholinesterase (Torpedo californica, UniProt P04058) (P04058 whole entry): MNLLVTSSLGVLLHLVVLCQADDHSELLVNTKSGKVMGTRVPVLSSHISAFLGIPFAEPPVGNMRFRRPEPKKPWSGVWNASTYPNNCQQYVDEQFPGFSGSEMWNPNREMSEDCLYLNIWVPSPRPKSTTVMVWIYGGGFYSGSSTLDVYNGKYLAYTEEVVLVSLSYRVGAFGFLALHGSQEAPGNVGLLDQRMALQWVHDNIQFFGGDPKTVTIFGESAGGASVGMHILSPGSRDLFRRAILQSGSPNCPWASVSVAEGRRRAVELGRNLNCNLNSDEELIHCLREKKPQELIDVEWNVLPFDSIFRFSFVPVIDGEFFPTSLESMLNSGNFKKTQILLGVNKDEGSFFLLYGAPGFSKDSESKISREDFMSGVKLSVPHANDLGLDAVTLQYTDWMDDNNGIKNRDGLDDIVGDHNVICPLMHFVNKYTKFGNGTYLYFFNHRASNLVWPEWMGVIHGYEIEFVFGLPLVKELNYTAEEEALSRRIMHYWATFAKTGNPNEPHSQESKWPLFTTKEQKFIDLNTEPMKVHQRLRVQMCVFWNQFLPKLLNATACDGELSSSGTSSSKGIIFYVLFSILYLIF
A further series has as its system Escherichia coli. The experiment in a line: Antibacterial activity against Escherichia coli incubated for 2 hrs followed by sterilized TSB addition and measured after 24 hrs by visual inspection. The series is classed as functional. The settings on record: time 26 hrs.
In a further series the test system is Bacillus subtilis. The experiment in a line: Antibacterial activity against Bacillus subtilis incubated for 2 hrs followed by sterilized TSB addition and measured after 24 hrs by visual inspection. The series is classed as functional. As to conditions: time 26 hrs.
Series [17] deals with Staphylococcus aureus. Briefly: Antibacterial activity against Staphylococcus aureus incubated for 2 hrs followed by sterilized TSB addition and measured after 24 hrs by visual inspection. In kind it is functional. As to conditions: time 26 hrs.
The next series concerns Pseudomonas aeruginosa. Briefly: Antibacterial activity against Pseudomonas aeruginosa incubated for 2 hrs followed by sterilized TSB addition and measured after 24 hrs by visual inspection. As to conditions: time 26 hrs. In kind it is functional.
The subject of another series is Providencia stuartii. Briefly: Antibacterial activity against Providencia stuartii incubated for 24 hrs by visual inspection. In kind it is functional.
Series [18] concerns Staphylococcus aureus. Briefly: Antibacterial activity against Staphylococcus aureus incubated for 2 hrs followed by sterilized water addition and measured after 24 hrs by visual inspection. In kind it is functional. The settings on record: time 26 hrs.
Series [19] can be described thus: Binding affinity to iron assessed as pFe3+ by spectrophotometric method.
A short description of series [20]: Octanol/water partition coefficient, log P of the compound shaken for 45 mins and measured after 15 mins. As to conditions: time 60 min. The series is classed as physicochemical.
Series [21] can be described thus: Antioxidant activity assessed as ABTS radical scavenging activity by trolox-equivalent antioxidant capacity assay. The series is classed as functional.
The target of series [22] is T2, Amyloid-beta precursor protein. Briefly: Inhibition of self-induced amyloid beta (1 to 42) (unknown origin) aggregation by ThT fluorescence assay.
Series [23] shares this target. The experiment in a line: Inhibition of self-induced amyloid beta (1 to 42) (unknown origin) aggregation by ThT fluorescence assay relative to control. As to conditions: concentration not given here.
Another series relates to Enterococcus faecium. The experiment in a line: Antibacterial activity against Enterococcus faecium BM4105 incubated for 20 hrs by CLSI-based broth microdilution method. The series is classed as functional.
Series [24] concerns Staphylococcus epidermidis. Briefly: Antibacterial activity against Staphylococcus epidermidis incubated for 20 hrs by CLSI-based broth microdilution method. The series is classed as functional.
Series [25] concerns Staphylococcus aureus. The experiment in a line: Antibacterial activity against Staphylococcus aureus ATCC 25913 incubated for 20 hrs by CLSI-based broth microdilution method. In kind it is functional.
A further series deals with Enterococcus faecalis. Briefly: Antibacterial activity against Enterococcus faecalis incubated for 20 hrs by CLSI-based broth microdilution method. The series is classed as functional.
Series [26] is described as follows: Cmax in Sprague-Dawley rat brain at 5 mg/kg, ip measured up to 30 mins by HPLC-MS analysis. In kind it is ADME, organism-based. Details: route intraperitoneal, dose 5 mg/kg, time <=30.
Series [27] is described as follows: Ratio of drug level in Sprague-Dawley rat brain to plasma at 5 mg/kg, ip measured after 10 to 180 mins by HPLC-MS analysis. As to conditions: brain and plasma, time 10-180 min, read-out: BPR. The series is classed as ADME, organism-based.
Series [28] in a line: Half life in Sprague-Dawley rat plasma at 5 mg/kg, ip measured after 10 to 180 mins by HPLC-MS analysis. In kind it is ADME, organism-based. The settings on record: time 10-180 min.
For series [29], the target named is T2, Amyloid-beta precursor protein. The experiment in a line: Inhibition of self-induced amyloid beta (1 to 42) (unknown origin) aggregation incubated for 24 hrs by ThT fluorescence assay.
Series [30] can be described thus: Volume of distribution in Sprague-Dawley rat plasma at 5 mg/kg, ip measured after 10 to 180 mins by HPLC-MS analysis. The series is classed as ADME, organism-based. As to conditions: in vivo, time 10-180 min.
A short description of series [31]: AUC (0 to infinity) in Sprague-Dawley rat plasma at 5 mg/kg, ip measured after 10 to 180 mins by HPLC-MS analysis. The series is classed as ADME, organism-based. Set-up: route intraperitoneal, time lower 10 min, dose 5 mg/kg, time upper 180 min.
Series [32] is described as follows: Binding affinity to Fe3+ assessed as binding constant.
Series [33] has as its system Staphylococcus epidermidis. Briefly: Antibacterial activity against Staphylococcus epidermis ATCC 12228 measured after 18 to 24 hrs by CLSI-based microdilution technique. The series is classed as functional. The settings on record: time 18-24 hrs.
Series [34] concerns Plasmodium falciparum. Briefly: Antiplasmodial activity against Plasmodium falciparum NF54 treated for 96 hrs with replacement of growth medium once a day for 4 days. As to conditions: NF54, 96 h. In kind it is functional, organism-based.
Series [35] in a line: Partition coefficient, log P of the compound. The settings on record: octanol/water. In kind it is physicochemical.

T2 sequence (P05067 whole entry): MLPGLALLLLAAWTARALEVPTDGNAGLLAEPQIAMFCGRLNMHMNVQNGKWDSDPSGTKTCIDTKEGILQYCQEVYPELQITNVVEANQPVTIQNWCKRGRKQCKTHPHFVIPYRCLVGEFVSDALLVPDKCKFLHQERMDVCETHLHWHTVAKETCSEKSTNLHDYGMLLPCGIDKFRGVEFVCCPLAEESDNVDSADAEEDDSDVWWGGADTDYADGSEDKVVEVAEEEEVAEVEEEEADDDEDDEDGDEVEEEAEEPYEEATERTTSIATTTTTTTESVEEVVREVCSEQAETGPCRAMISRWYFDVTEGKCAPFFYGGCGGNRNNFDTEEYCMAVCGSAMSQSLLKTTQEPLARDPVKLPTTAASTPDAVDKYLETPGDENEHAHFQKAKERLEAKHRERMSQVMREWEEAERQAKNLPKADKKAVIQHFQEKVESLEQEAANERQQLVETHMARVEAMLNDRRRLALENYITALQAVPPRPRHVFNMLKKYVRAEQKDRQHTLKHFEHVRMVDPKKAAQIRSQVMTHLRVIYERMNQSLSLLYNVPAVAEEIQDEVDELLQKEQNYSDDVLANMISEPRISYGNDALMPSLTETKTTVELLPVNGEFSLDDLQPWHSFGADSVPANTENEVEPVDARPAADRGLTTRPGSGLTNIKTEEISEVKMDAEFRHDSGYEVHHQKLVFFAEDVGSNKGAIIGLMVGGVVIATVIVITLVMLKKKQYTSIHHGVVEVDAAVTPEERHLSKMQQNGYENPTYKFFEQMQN
T1 sequence (O42275 whole entry): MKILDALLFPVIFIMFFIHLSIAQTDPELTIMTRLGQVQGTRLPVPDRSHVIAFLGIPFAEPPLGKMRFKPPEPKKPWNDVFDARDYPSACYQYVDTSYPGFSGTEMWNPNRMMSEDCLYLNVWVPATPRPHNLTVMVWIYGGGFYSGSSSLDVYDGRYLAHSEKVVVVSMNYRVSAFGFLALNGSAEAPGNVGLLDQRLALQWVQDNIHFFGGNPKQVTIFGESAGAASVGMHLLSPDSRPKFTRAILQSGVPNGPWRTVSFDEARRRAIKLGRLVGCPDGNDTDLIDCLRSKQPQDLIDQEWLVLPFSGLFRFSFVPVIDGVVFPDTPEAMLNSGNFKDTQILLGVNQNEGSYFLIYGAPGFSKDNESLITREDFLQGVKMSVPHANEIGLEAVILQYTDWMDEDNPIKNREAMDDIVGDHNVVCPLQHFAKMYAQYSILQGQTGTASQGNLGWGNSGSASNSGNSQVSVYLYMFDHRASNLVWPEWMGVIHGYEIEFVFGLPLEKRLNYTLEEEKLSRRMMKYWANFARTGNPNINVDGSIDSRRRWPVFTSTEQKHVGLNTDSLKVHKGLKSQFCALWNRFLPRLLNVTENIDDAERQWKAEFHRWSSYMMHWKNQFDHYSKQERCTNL

With `CC(=O)NCCOCCOCCn1ccc(=O)c(O)c1C`, the pH-dependent lipophilicity (logD) in series [1] was -2.01.
With `Cc1c(OC(N)=O)c(=O)ccn1-c1ccccc1`, the IC50 on Acetylcholinesterase [2] was determined as 48.8 µM.
Take `O=c1cc(CNCCCCCCNc2ccnc3cc(Cl)ccc23)n(C2CC2)cc1OCc1ccccc1`: the IC50 in the series on Plasmodium falciparum [3] stood at 463 nM; in the series with Plasmodium falciparum [4], 64 nM; in the series on Plasmodium falciparum [5], 505 nM; in the series on Plasmodium falciparum [6], 47 nM.
On the same counts, the results for `CCc1c(OCc2ccccc2)c(=O)ccn1CCCCCCNc1ccnc2cc(Cl)ccc12` are 76 nM, 41 nM, 89 nM and 122 nM.
In the series with Staphylococcus aureus [7], `CO/N=C(\C(=O)N[C@@H]1C(=O)N2C(C(=O)[O-])=C(C[n+]3cccc4c3CCC4)CS[C@H]12)c1csc(N)n1` [CEFPIROME] displayed a 50% effective dose (ED50) of 1.5 mg/kg.
With `Cc1c(O)c(=O)ccn1CC(=O)NCC(O)CNc1c2c(nc3ccccc13)CCCC2` (centres undefined), the midpoint of inhibition against Acetylcholinesterase [8], the IC50, lay at 960 nM. For the same compound, the inhibition in series [9] worked out at 86%. In addition, the half-maximal effective concentration (EC50) in series [10] was 399 µM. Also, the Activity in [11] is 21.7.
In turn, `COc1cccc2cc(C(=O)NCCn3ccc(=O)c(O)c3C)oc12` came in with an inhibition in series [12] of 49.8%. For the same compound, the figures for the Activity in series [13] and in series [14] were 17.3 and 6.5, respectively. For the same compound, in series [15], the half-maximal effective concentration (EC50) amounted to 199 µM. Also, it took 246 µM to reach half-maximal inhibition on Acetylcholinesterase [16] (IC50).
Turning to `CCCC(=O)NC(CCCNC(=O)c1c(O)c(=O)ccn1CCO)(CCCNC(=O)c1c(O)c(=O)ccn1CCO)CCCNC(=O)c1c(O)c(=O)ccn1CCO`, the minimum inhibitory concentration (MIC) with Escherichia coli was determined as 8 µg/mL (≈ 9.81 µM); against Bacillus subtilis, 8 µg/mL (≈ 9.81 µM); in the series on Staphylococcus aureus [17] it was 8 µg/mL (≈ 9.81 µM); in the series with Pseudomonas aeruginosa, 16 µg/mL (≈ 19.6 µM).
For `COCCOCCOCC(=O)NC(CCC(=O)NCc1c(O)c(=O)cc(C)n1C)(CCC(=O)NCc1c(O)c(=O)cc(C)n1C)CCC(=O)NCc1c(O)c(=O)cc(C)n1C`, the minimum inhibitory concentration (MIC) came to 320 µg/mL (≈ 373 µM) in the series on Providencia stuartii and 240 µg/mL (≈ 280 µM) with Staphylococcus aureus [18].
Turning to `CC(=O)NCCCCCCn1ccc(=O)c(O)c1C`, in [19], the Activity was 20.3. In series [20], the log partition coefficient (logP) at 1 h is 0.53.
The compound `COc1cccc2cc(C(=O)NCCn3ccc(=O)c(OCc4ccccc4)c3C)oc12` had an inhibition in series [12] of 36.1%. In addition, the EC50 in series [15] is above 1000 µM. Moreover, half-maximal inhibition on Acetylcholinesterase [16] (IC50) was put at 76 µM.
As for `O=c1cc(/C=C/c2nc3ccccc3o2)occ1O`, in series [21], the Activity worked out at 4.29. Besides, in series [22], the IC50 is 7.05 µM. Further, in series [23], the inhibition is 65%.
On the same counts, the results for `O=c1cc(/C=C/c2nc3ccc(O)cc3s2)occ1O` are 6.03, 5.06 µM and 78.3%.
Take `CCN(CC)c1ccc2c(-c3ccc(C(=O)NCc4c(O)c(=O)cc(C)n4C)cc3)c3ccc(=[N+](CC)CC)cc-3oc2c1`: the MIC (against Enterococcus faecium; in [24]; in the series on Staphylococcus aureus [25]; against Enterococcus faecalis) was 11 µM throughout.
In series [26], `C#CCN(C)CCCn1ccc(=O)c(O)c1C` registered a Cmax of 207 ng/mL. Also, in series [27], the Kp worked out at 0.69. For the same compound, the half-life in series [28] was 96 min. In addition, it took 2850 nM to reach half-maximal inhibition in series [29] (IC50). The Vd in [30] was 18.7 L/kg. For the same compound, the AUC(0-inf) in series [31] was found to be 636 ng·h/mL.
`O=C(NCCN(CCNC(=O)c1[nH]ccc(=O)c1O)CCNC(=O)c1[nH]ccc(=O)c1O)c1[nH]ccc(=O)c1O`: in [11], the Activity came to 30.5. For the same compound, the log Ks in series [32] was 30.7.
As for `Cc1c(O)c(=O)ccn1CC(=O)NCCCNc1c2c(nc3cc(Cl)ccc13)CCCC2`, on Acetylcholinesterase [8], the IC50 is 860 nM. In [9], this compound had an inhibition of 95.2%. In [10], the EC50 came out at 1110 µM.
In series [33], `CN(C)c1ccc2c(-c3cc(NC(=S)NCCC(=O)NC(CCCNC(=O)c4[nH]ccc(=O)c4O)(CCCNC(=O)c4[nH]ccc(=O)c4O)CCCNC(=O)c4[nH]ccc(=O)c4O)ccc3C(=O)[O-])c3ccc(=[N+](C)C)cc-3oc2c1` yielded an MIC of 16 µM (≈ 18.1 µg/mL). This counts as double-digit micromolar.
For `C=CCN1C(c2ccccn2)CC(=O)C(C(=O)OC)C1c1ccccn1` (centres undefined), inhibition in the series with Plasmodium falciparum [34] was half-maximal at 1400 nM (IC50).
Consider `Cc1c(O)c(=O)ccn1CCN1CCCCC1`, for which the logP in [35] was found to be 0.96.
For `CCCC(=O)NC(CCCNC(=O)c1c(O)c(=O)ccn1C)(CCCNC(=O)c1c(O)c(=O)ccn1C)CCCNC(=O)c1c(O)c(=O)ccn1C`, the MIC in the series with Escherichia coli amounted to 8 µg/mL (≈ 11 µM); against Bacillus subtilis, 8 µg/mL (≈ 11 µM); with Staphylococcus aureus [17] it was 8 µg/mL (≈ 11 µM); against Pseudomonas aeruginosa, 16 µg/mL (≈ 22 µM).
